According to publication PMC8317065, “UPLC-MS/MS Method for Analysis of Endocannabinoid and Related Lipid Metabolism in Mouse Mucosal Tissue” (Frontiers in Physiology, 2021):

System: DGL
Experiment: DGL (MAG biosynthetic enzyme) activity assay, UPLC-MS/MS, jejunum epithelium protein isolates
Format: biochemical, mouse
Details: jejunum epithelium protein 50 μg
Protocol: Homogenized samples were centrifuged at 800 × g for 15 m at 4°C. The supernatant was collected in a 2.0 mL centrifuge tube and sonicated twice for 10 s. Samples underwent two sequential freeze thaw cycles using liquid N2. Samples were again centrifuged at 800 × g, 15 min, 4°C and the supernatant was collected. Total protein was then quantified via BCA assay and normalized between all samples. Protein isolations for each assay and each tissue were performed separately.
Substrate solutions were prepared by drying stock 19:2 DAG (20 nmol/reaction) under N2 steam (99.998% pure) and reconstituted in a solution of 50 mM Tris–HCl with 0.2% Triton x-100 (pH = 7.0). This solution was bath sonicated for 60 min at room temperature while protein samples were prepared. […] The products of the reaction were extracted via lipid extraction methods (see section “Lipid Extraction for Enzyme Assays”) and quantified via UPLC-MS/MS (see section “Quantitation of MAG Biosynthetic Enzyme Activity Assay Products”).
Lipids were extracted using liquid-liquid extraction with chloroform (2.0 mL) followed by 0.8 mL 0.2-micron ultra-purified water. […] Products were detected and quantified via UPLC-MS/MS techniques (see section “UPLC-MS/MS Detection of Analytes”). […]

CCCCCCCCCCC[C@@H](C[C@@H]1OC(=O)[C@H]1CCCCCC)OC(=O)[C@H](CC(C)C)NC=O [THL, tetrahydrolipstatin]
DGL activity (normalized response) (highest inhibitor concentration of range (1,000 nM)): 20.39 ± 6.65% | DGL activity (normalized response) (lowest inhibitor concentration of range (3 nM)): 108.85 ± 6.19%
